The nature of series [1]: Dissolution of isolated product in water. It counts as physicochemical. Conditions: observation.
For series [2] the following is noted: product dissolved in water, observation.

Turning to `CCCCCCCCCCCCCCCCCC[N+](C)(C)CCC[Si](OCC(CO)(CO)NCCS(=O)(=O)[O-])(OCC(CO)(CO)NCCS(=O)(=O)O)OCC(CO)(CO)NCCS(=O)(=O)O` [Example 1, Disodium; 2-[[1-[[3-[dimethyl(octadecyl)ammonio]propyl-[3-hydroxy-2-(hydroxymethyl)-2-(2-sulfoethylamino)propoxy]-[3-hydroxy-2-(hydroxymethyl)-2-(2-sulfonatoethylamino)propoxy]silyl]oxymethyl]-2-hydroxy-1-(hydroxymethyl)ethyl]amino]ethanesulfonate chloride], the dissolution in water result in series [1] is “dissolves in water”.

With `CCCCCCCCCCCCCCCCCC[N+](C)(C)CCC[Si](OCC(CO)(CO)NCC(O)CS(=O)(=O)[O-])(OCC(CO)(CO)NCC(O)CS(=O)(=O)O)OCC(CO)(CO)NCC(O)CS(=O)(=O)O` (stereo not shown) [Example 2, Disodium; 3-[[1-[[3-[dimethyl(octadecyl)ammonio]propyl-[3-hydroxy-2-(hydroxymethyl)-2-[(2-hydroxy-3-sulfonato-propyl)amino]propoxy]-[3-hydroxy-2-(hydroxymethyl)-2-[(2-hydroxy-3-sulfo-propyl)amino]propoxy]silyl]oxymethyl]-2-hydroxy-1-(hydroxymethyl)ethyl]amino]-2-hydroxy-propane-1-sulfonate; chloride], in series [1], the dissolution in water entry is “dissolves in water”.

For `CCCCCCCCCCCCCCCCCC[N+](C)(C)CCC[Si](OCC(CO)(CO)NCCS(=O)(=O)[O-])(OCC(CO)(CO)NCCS(=O)(=O)O)OCC(CO)(CO)NCCS(=O)(=O)O` [Example 4, Sodium; 7,7-bis(3-hydroxy-2-(hydroxymethyl)-2-((2-sulfoethyl)amino)propoxy)-4,4-bis(hydroxymethyl)-11,11-dimethyl-6-oxa-3,11-diaza-7-silanonacosan-11-ium-1-sulfonate; chloride], in series [1], the dissolution in water entry was “dissolved quickly in water, initially hazy but slowly forms clear”. Take `CCCCCCCCCCCCCCCCC[N+](C)(C)CCC[Si](OCCN(CCO)CC(O)CS(=O)(=O)[O-])(OCCN(CCO)CC(O)CS(=O)(=O)O)OCCN(CCO)CC(O)CS(=O)(=O)O` (stereo not shown) [Example 8, Disodium; 3-[2-[3-[heptadecyl(dimethyl)ammonio]propyl-[2-[2-hydroxyethyl-(2-hydroxy-3-sulfonato-propyl)amino]ethoxy]-[2-[2-hydroxyethyl-(2-hydroxy-3-sulfo-propyl)amino]ethoxy]silyl]oxyethyl-(2-hydroxyethyl)amino]-2-hydroxy-propane-1-sulfonate; chloride]: the dissolution in water result in series [1] is reported as “dissolved in water”. Further, in series [2], the stability in water entry is listed as “forms a precipitate after 5 hours”. On to `CCCCCCCCCCCCCCCCCC[N+](C)(C)CCC[Si](OCC(CO)(CO)NCC(=O)[O-])(OCC(CO)(CO)NCC(=O)[O-])OCC(CO)(CO)NCC(=O)O.[Cl-].[Na+].[Na+]` [Example 10, Disodium, 7-(2-((carboxymethyl)amino)-3-hydroxy-2-(hydroxymethyl)propoxy)-7-(3-(dimethyl(octadecyl)ammonio)propyl)-4,4,10,10-tetrakis(hydroxymethyl)-6,8-dioxa-3,11-diaza-7-silatridecanedioate; chloride], for which the dissolution in water entry in series [1] is recorded as “readily dissolved in water”.

As for `CCCCCCCCCCCCCCCCC[N+](C)(C)CCC[Si]12OC[C@@H](O)[C@H](O1)[C@H](O)[C@H](C(=O)[O-])O2` [Example 16, Sodium (3R,4S,5S,6R)-1-(3-(heptadecyldimethylammonio)propyl)-4,6-dihydroxy-2,8,9-trioxa-1-silabicyclo[3.3.1]nonane-3-carboxylate; Chloride], in series [1], the dissolution in water entry is “poorly dissolved in water”. In series [2], the stability in water entry is “quickly decomposed to for a biphasic mixture”.

On to `CCCCCCCCCCCCCCCCC[N+](C)(C)CCC[Si]1(O[C@H](C(=O)O)[C@H](O)[C@H](O)[C@@H](O)C(=O)O)O[C@@H]([C@H](O)C(=O)O)[C@H](O)[C@H](C(=O)O)O1` (stereo partly drawn) [Example 17, N-(3-((4R,5S,6R)-4-carboxy-6-((S)-carboxy(hydroxy)methyl)-2-((1S,2R,3S,4R)-1,4-dicarboxy-2,3,4-trihydroxybutoxy)-5-hydroxy-1,3,2-dioxasilinan-2-yl)propyl)-N,N-dimethylheptadecan-1-aminium chloride], for which the dissolution in water entry in series [1] was “poorly dissolved in water”. The stability in water entry in series [2] was “quickly decomposed to for a biphasic mixture”.

As to `CCCCCCCCCCCCCCCCCC[N+](C)(C)CCC[Si](OCC(CO)(CO)NCCS(=O)(=O)[O-])(OCC(CO)(CO)NCCS(=O)(=O)O)OCC(CO)(CO)NCCS(=O)(=O)O.[Cl-].[Na+]` [Example 21, Monosodium; 2-[[1-[[3-[dimethyl(octadecyl)ammonio]propyl-[3-hydroxy-2-(hydroxymethyl)-2-(2-sulfoethylamino)propoxy]-[3-hydroxy-2-(hydroxymethyl)-2-(2-sulfonatoethylamino)propoxy]silyl]oxymethyl]-2-hydroxy-1-(hydroxymethyl)ethyl]amino]ethanesulfonate chloride], the dissolution in water entry in series [1] was “dissolves readily in water”. Consider “Disodium, 7-(2-((carboxymethyl)(2-hydroxyethyl)amino)ethoxy)-7-(3-(heptadecyldimethylammonio)propyl)-3,11-bis(2-hydroxyethyl)-6,8-dioxa-3,11-diaza-7-silatridecanedioate; chloride [Example 13]”, for which the dissolution in water result in series [1] was “readily dissolved in water”. In addition, the stability in water result in series [2] is “soon formed a suspension”.

The record behind these values is patent US12264170B2, “Antimicrobial organosilanes” (TOPIKOS SCIENTIFIC, INC., priority 2019, dated 2025).
